Results taken from PubChem BioAssay (NCI).
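Method: 48-hour compound exposure of cells in 96-well plates, five concentrations, linear interpolation of endpoints. GI50 = concentration required for 50% inhibition of growth. TGI denotes the concentration required for complete inhibition of growth.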

What was measured:
Test in all cases: NCI tumour cell line growth inhibition, 48 h; in the data active means GI50 below about 0.43 µM; inactive means the rest
HCC-2998 colon = tested on: HCC-2998 colon
SW-620 colon = tested on: SW-620 colon
M14 melanoma = tested on: M14 melanoma
KM12 colon = tested on: KM12 colon
RXF-631 renal = tested on: RXF-631 renal
SNB-78 CNS = tested on: SNB-78 CNS
SK-MEL-28 melanoma = tested on: SK-MEL-28 melanoma
HL-60(TB) leukemia = tested on: HL-60(TB) leukemia
SK-MEL-2 melanoma = tested on: SK-MEL-2 melanoma
KM20L2 colon = tested on: KM20L2 colon
HOP-92 NSCLC = tested on: HOP-92 NSCLC
UO-31 renal = tested on: UO-31 renal
HCT-116 colon = tested on: HCT-116 colon
SF-539 CNS = tested on: SF-539 CNS
CCRF-CEM leukemia = tested on: CCRF-CEM leukemia
HOP-62 NSCLC = tested on: HOP-62 NSCLC
RXF 393 renal = tested on: RXF 393 renal
SNB-19 CNS = tested on: SNB-19 CNS
DLD-1 colon = tested on: DLD-1 colon
SK-OV-3 ovarian = tested on: SK-OV-3 ovarian
COLO 205 colon = tested on: COLO 205 colon
IGROV1 ovarian = tested on: IGROV1 ovarian
UACC-257 melanoma = tested on: UACC-257 melanoma
SF-268 CNS = tested on: SF-268 CNS
OVCAR-8 ovarian = tested on: OVCAR-8 ovarian
K-562 leukemia = tested on: K-562 leukemia
SK-MEL-5 melanoma = tested on: SK-MEL-5 melanoma
MOLT-4 leukemia = tested on: MOLT-4 leukemia
MALME-3M melanoma = tested on: MALME-3M melanoma
NCI-H460 lung = tested on: NCI-H460 lung
OVCAR-3 ovarian = tested on: OVCAR-3 ovarian
LXFL 529 NSCLC = tested on: LXFL 529 NSCLC
NCI-H226 lung = tested on: NCI-H226 lung
U251 CNS = tested on: U251 CNS
A549 NSCLC = tested on: A549 NSCLC
M19-MEL melanoma = tested on: M19-MEL melanoma
HCT-15 colon = tested on: HCT-15 colon
CAKI-1 renal = tested on: CAKI-1 renal
UACC-62 melanoma = tested on: UACC-62 melanoma
ACHN renal = tested on: ACHN renal
SF-295 CNS = tested on: SF-295 CNS
NCI-H23 lung = tested on: NCI-H23 lung
OVCAR-5 ovarian = tested on: OVCAR-5 ovarian
786-0 renal = tested on: 786-0 renal
DMS 114 small cell lung = tested on: DMS 114 small cell lung
TK-10 renal = tested on: TK-10 renal
LOX IMVI melanoma = tested on: LOX IMVI melanoma
HOP-18 NSCLC = tested on: HOP-18 NSCLC
EKVX NSCLC = tested on: EKVX NSCLC
OVCAR-4 ovarian = tested on: OVCAR-4 ovarian
SN12C renal = tested on: SN12C renal
HT29 colon = tested on: HT29 colon
P388 leukemia = tested on: P388 leukemia
MCF7 breast = tested on: MCF7 breast
NCI-H522 lung = tested on: NCI-H522 lung
SNB-75 CNS = tested on: SNB-75 CNS
MDA-MB-231 breast = tested on: MDA-MB-231 breast

Nc1nc(N)c(-c2ccccc2)c(C(=O)Nc2nccs2)n1
> 100 µM: TGI (HCC-2998 colon) | TGI (SW-620 colon) | TGI (M14 melanoma) | TGI (RXF-631 renal) | TGI (SNB-78 CNS) | TGI (SK-MEL-28 melanoma) | TGI (HL-60(TB) leukemia) | TGI (SK-MEL-2 melanoma) | TGI (KM20L2 colon) | TGI (HOP-92 NSCLC) | TGI (HCT-116 colon) | TGI (SF-539 CNS) | TGI (CCRF-CEM leukemia) | TGI (RXF 393 renal) | TGI (SNB-19 CNS) | TGI (DLD-1 colon) | TGI (SK-OV-3 ovarian) | TGI (COLO 205 colon) | TGI (IGROV1 ovarian) | TGI (UACC-257 melanoma) | TGI (SF-268 CNS) | TGI (OVCAR-8 ovarian) | TGI (K-562 leukemia) | TGI (SK-MEL-5 melanoma) | TGI (MOLT-4 leukemia) | TGI (NCI-H460 lung) | TGI (OVCAR-3 ovarian) | TGI (LXFL 529 NSCLC) | TGI (NCI-H226 lung) | TGI (U251 CNS) | TGI (A549 NSCLC) | TGI (M19-MEL melanoma) | TGI (HCT-15 colon) | TGI (CAKI-1 renal) | TGI (UACC-62 melanoma) | TGI (ACHN renal) | TGI (SF-295 CNS) | TGI (NCI-H23 lung) | TGI (OVCAR-5 ovarian) | TGI (786-0 renal) | TGI (DMS 114 small cell lung) | TGI (TK-10 renal) | TGI (LOX IMVI melanoma) | TGI (HOP-18 NSCLC) | TGI (EKVX NSCLC) | TGI (OVCAR-4 ovarian) | TGI (SN12C renal) | TGI (HT29 colon)
> 100000 nM: TGI (KM12 colon) | TGI (UO-31 renal) | TGI (HOP-62 NSCLC) | TGI (MALME-3M melanoma)

COc1ccc2c3c(c4cc(OC)c(OC)cc4c2c1)C[C@H]1CCCCN1C3
1.92 pM: TGI (MDA-MB-231 breast)
0.00165 nM: TGI (HOP-62 NSCLC)
0.038 µM: TGI (DLD-1 colon)
0.00442 nM: TGI (UO-31 renal)
0.000279 µM: TGI (NCI-H23 lung)
0.000216 µM: TGI (NCI-H522 lung)
0.00103 µM: TGI (CAKI-1 renal)
active: GI50 (SW-620 colon) 0.00889 µM | GI50 (MALME-3M melanoma) 1.82 pM | GI50 (NCI-H522 lung) 2.82 pM | GI50 (SNB-75 CNS) 1.78 pM | GI50 (NCI-H23 lung) 2.01 pM
0.0316 µM: TGI (MCF7 breast)
0.00897 µM: TGI (SNB-78 CNS)
0.00591 µM: TGI (OVCAR-4 ovarian)
0.011 µM: TGI (HCT-116 colon)
0.0149 µM: TGI (SK-OV-3 ovarian)
0.029 µM: TGI (LOX IMVI melanoma)
0.00512 µM: TGI (P388 leukemia)
0.000103 µM: TGI (SNB-75 CNS)
0.0212 µM: TGI (U251 CNS)
0.0231 µM: TGI (OVCAR-8 ovarian)
0.000212 µM: TGI (786-0 renal)
0.00988 nM: TGI (MALME-3M melanoma)
0.00184 nM: TGI (KM12 colon)
